Assay results as given in paper PMC12454493, “Insight on novel sulfamoylphenyl pyrazole derivatives as anticancer carbonic anhydrase inhibitors” (Molecular Diversity, 2024).
Read-outs that look alike come from different tables or passages of the source.

Tests used:
[1] = tested on: MCF-7 breast cancer cell line; assay: In vitro cytotoxicity, MTT assay; settings: Homo sapiens
Protocol: In vitro cytotoxic activity:
Firstly, cultures were delivered into sterile area then each vial was supplied with 3 mL of medium or balanced salt solution free from phenol red and serum. Cultures were subjected to incubation foe 2-4 g. After the incubation period, MTT solubilization solution was added to remove the produced formazan crystals. Spectrophotometric measurement of absorbance was carried out at 690 nm for the background which then subtracted from absorbance measured at 570 nm. Five different drug concentrations were used 100, 25, 6.3, 1.6 and 0.4 nM and measured in triplicate.
Cell cycle analysis and Apoptotic assay
was determined using Annexin V-FITC Apoptosis Detection Kit (Bio Vision) according to the manufacturer’s procedures. Briefly, cell lines were cultured and incubated with each of the tested compounds for 48 h. Then, the cells were collected by centrifugation and resuspended in 500 μl of 1X binding buffer. 5 μl of Annexin V-FITC was added and 5 μl of propidium iodide (PI 50 mg/ml, optional.). The cells were incubated at room temperature for
Em = 530 nm) using FITC signal detector and PI staining was analyzed by the phycoerythrin emission signal detector.
Apoptotic assay: cell lines were cultured and incubated with each of the tested compounds for 48 h.
Then, the cells were collected by centrifugation and resuspended in 500 μl of 1X binding buffer. 5 μl of Annexin V-FITC was added and 5 μl of propidium iodide (PI 50 mg/ml, optional.). the cells were incubated at room temperature for 5 min in the dark.
signal detector and PI staining was analyzed by the phycoerythrin emission signal detector.

hCA XII = hCA XII (Homo sapiens, UniProt O43570); settings: cited from earlier work
hCA IX = hCA IX (Homo sapiens, UniProt Q16790); settings: cited from earlier work

Chain of hCA XII (O43570 25-354): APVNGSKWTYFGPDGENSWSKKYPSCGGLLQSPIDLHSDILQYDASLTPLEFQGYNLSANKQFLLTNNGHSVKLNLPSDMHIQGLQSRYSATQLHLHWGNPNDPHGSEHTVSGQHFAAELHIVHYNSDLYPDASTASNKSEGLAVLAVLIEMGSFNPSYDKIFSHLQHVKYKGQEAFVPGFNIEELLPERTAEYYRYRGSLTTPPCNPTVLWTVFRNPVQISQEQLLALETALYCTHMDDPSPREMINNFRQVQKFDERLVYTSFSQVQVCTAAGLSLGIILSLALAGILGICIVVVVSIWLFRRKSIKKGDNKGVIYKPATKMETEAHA

SMILES	IC50 ([1]; MCF7, read-out: IC50 (µM) ± SD cytotoxic activity, MCF-7, MTT, normal conditions) [µM]	IC50 ([1]; MCF7, read-out: IC50 (µM) ± SD cytotoxic activity, MCF-7, MTT, under hypoxia) [µM]	Ki (hCA XII) [nM]	Ki (hCA IX) [nM]
COc1cccc2c1C(=O)c1c(O)c3c(c(O)c1C2=O)C[C@@](O)(C(=O)CO)C[C@@H]3O[C@H]1C[C@H](N)[C@H](O)[C@H](C)O1 [Doxorubicin, doxorubicin, reference compound]	11.6 ± 0.46	2.72 ± 0.11	–	–
COc1ccc(C2CC(C3=CC=CCC3=S)=NN2c2ccc(S(N)(=O)=O)cc2)c(OC)c1OC (stereo not shown) [IV]	–	–	9	44
